# Results taken from ChEMBL document CHEMBL2331453, “Arundinols A-C and arundinones A and B from the plant endophytic fungus Microsphaeropsis arundinis” (J Nat Prod, 2013).
# Tests used:
# [1] = system: T-24; assay: Cytotoxicity against human T24 cells after 48 hrs by MTS assay; format: functional, cell-based; conditions: T-24, 48 h
# [2] = system: A549; assay: Cytotoxicity against human A549 cells after 48 hrs by MTS assay; format: functional, cell-based; conditions: A549, 48 h
# [3] = system: Staphylococcus aureus; assay: Antibacterial activity against Staphylococcus aureus ATCC 6538 after 24 hrs; format: functional; conditions: ATCC 6538, 24 h
Compound,IC50 [1],IC50 [2],MIC [3]
COc1c(O)c(-c2c(O)c(OC)c(OC)c3c2OC(C)(O)C3=O)c2c(c1OC)C(=O)C(C)(O)O2 (centres undefined) [ARUNDINONE B],35.4 µM,81.6 µM,
CC1(C)S[C@@H]2[C@H](NC(=O)[C@H](N)c3ccccc3)C(=O)N2[C@H]1C(=O)O [AMPICILLIN],,,0.46 µg/mL
C=C(C)[C@@H]1CC[C@]2(C)C(=C(C)C(=O)C[C@H]2O)C1 [LIGUCYPERONOL],,,11.4 µg/mL
